The test system of one assay is NCI-N87 cell. The assay is described as follows: Proliferation inhibition assay in serum-containing media. It is filed as cell-based, human. As to the method:
Cell viability was determined using Cell Titer Glo from Promega according to manufacturer's instructions.

The next assay concerns the target HER2 (Homo sapiens, UniProt P04626). The following applies: reported value; read-out: reported affinity of the parent antibody; cited from earlier work.

On to “pertuzumab: humanized version of the murine antibody 2C4 that inhibits dimerization of HER2 with other HER receptors [reference compound]”, for which, in the assay on NCI-N87 cell, the “inhibition of cell proliferation” value is recorded as “limited activity”.

B1: 1.39.1: fully human monoclonal antibody against human HER2, parent of 39S (WO 2008/019290); VH SEQ ID NO:43, VL SEQ ID NO:44 (antibody, V domains shown)
VH: EVQLVESGGGLVKPGGSLRLSCAASGFTFSSYSMNWVRQAPGKGLEWVSSISSSSSYIYYADSVKGRFTISRDNAKNSLYLQMNSLRAEDTAVYYCARGGDGYNYYYFDYWGQGTLVTVSS
VL: DIVMTQSPDSLAVSLGERATITCKSSQSVFFRSNNKNCLAWYQQRPGQPPNLLIYWASSRESGVPDRFSGSGSGTDFALTISSLQTEDVAVYYCQQYFGSPFTFGPGTKVDIK
With B1, the Kd with HER2 is roughly 2 nM.

The values above are taken from patent US10160812B2, “Bispecific HER2 antibodies” (MedImmune, LLC, priority 2014, dated 2018).
